Some test systems named below: MDA-MB-231 breast; HS 578T breast; SF-539 CNS; HCC-2998 colon; SNB-75 CNS; TK-10 renal; NCI-H226 lung; A498 renal; DU-145 prostate; MDA-MB-435.
Assay in all cases: growth of human tumour cells (NCI), 48 h

SMILES strings stand for the structures. Several values for one entry are separate records, joined by “and”; a condition that tells them apart may be missing. Identical values can stand only once.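 Values below derive from 48-hour exposures of cells grown in 96-well plates, with endpoints linearly interpolated between the two concentrations bracketing the appropriate inhibition level. GI50 is the concentration that inhibits growth by half. TGI denotes the concentration required for complete inhibition of growth.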

In the case of `O=C1/C(=C/C(Cl)=C/c2ccccc2)SC(=S)N1CCc1ccc(O)cc1`, the GI50 was 3.82 µM in the assay with MDA-MB-231 breast; 3.24 µM in the assay on HS 578T breast; 1.72 µM in the assay with SF-539 CNS; 1.91 µM with HCC-2998 colon; 1.31 µM with SNB-75 CNS; 2.39 µM with TK-10 renal. The GI50 with NCI-H226 lung is 2.17 µM; in the assay with A498 renal, 1.86 µM; in the assay on DU-145 prostate, 1.6 µM; in the assay with MDA-MB-435, 1.61 µM. The TGI with MDA-MB-231 breast was 34.3 µM; in the assay with HS 578T breast, above 100 µM; in the assay on SF-539 CNS, 3.52 µM; with HCC-2998 colon, 3.72 µM; with SNB-75 CNS, 5.62 µM; with TK-10 renal, 5.49 µM. The TGI is 7.16 µM with NCI-H226 lung, 3.51 µM with A498 renal, 3.28 µM in the assay on DU-145 prostate and 4.27 µM in the assay with MDA-MB-435.
`CC(C)(O)[C@H]1[C@@H]2OC(=O)[C@H]1[C@]1(O)C[C@H]3OC34C(=O)O[C@H]2[C@@]41C` (some centres undefined) (tested in a mixture with another compound): the TGI with MDA-MB-231 breast, in the assay on HS 578T breast, in the assay on SF-539 CNS, in the assay with HCC-2998 colon, in the assay with SNB-75 CNS and in the assay on TK-10 renal was above 100 µM throughout. Also, the TGI in the assay on NCI-H226 lung, in the assay with A498 renal, with DU-145 prostate and in the assay with MDA-MB-435 was above 100 µM throughout.
For the molecule `COC(=O)Nc1nc2ccc(Oc3ccc(NC(=O)Nc4cccc(Cl)c4)cc3)cc2[nH]1`, the GI50 with MDA-MB-231 breast is 3.31 µM; in the assay on HS 578T breast, 0.553 µM; in the assay on SF-539 CNS it was 0.658 µM; in the assay with HCC-2998 colon, 7.98 µM; in the assay on SNB-75 CNS it was 0.689 µM; in the assay on TK-10 renal it was 4 µM. In addition, the GI50 was 2.46 µM with NCI-H226 lung, 1.64 µM in the assay with A498 renal, 1.58 µM in the assay with DU-145 prostate and 0.0755 µM in the assay with MDA-MB-435. The TGI in the assay on MDA-MB-231 breast was 19.3 µM; in the assay on HS 578T breast, 9.67 µM; in the assay on SF-539 CNS it was 6.85 µM; in the assay on HCC-2998 colon, above 25 µM; with SNB-75 CNS it was 8.36 µM; with TK-10 renal it was 11.6 µM. Also, the TGI turned out to be 24.3 µM in the assay with NCI-H226 lung, 13.8 µM in the assay on A498 renal, 8.44 µM with DU-145 prostate and 0.315 µM in the assay with MDA-MB-435.
`CC/C(=C(\CC)c1ccc(OCCN(CC)CC)cc1)c1ccc(OCCN(CC)CC)cc1`: the GI50 with MDA-MB-231 breast was 1.76 µM; in the assay on HS 578T breast, 1.74 µM; with SF-539 CNS it was 1.29 µM; with HCC-2998 colon, 5.57 µM; with SNB-75 CNS, 2.83 µM; with TK-10 renal it was 3.34 µM. In addition, the GI50 was 3.87 µM in the assay on NCI-H226 lung, 0.76 µM in the assay on A498 renal, 6.05 µM in the assay with DU-145 prostate and 1.86 µM with MDA-MB-435. Besides, the TGI in the assay with MDA-MB-231 breast was found to be 5.82 µM; in the assay on HS 578T breast, 7.09 µM; in the assay with SF-539 CNS, 3.85 µM; with HCC-2998 colon, 18.9 µM; in the assay on SNB-75 CNS, 11 µM; in the assay with TK-10 renal, 12.1 µM. Further, the TGI with NCI-H226 lung was 13.7 µM; in the assay with A498 renal, 3.31 µM; with DU-145 prostate, 19.2 µM; with MDA-MB-435, 7.28 µM.
Consider `ON(CCc1ccccn1)Cc1ccccc1`, for which the TGI in the assay with MDA-MB-231 breast, in the assay on HS 578T breast, with SF-539 CNS, in the assay on HCC-2998 colon, in the assay on SNB-75 CNS and with TK-10 renal was above 100 µM throughout. The TGI in the assay with NCI-H226 lung, in the assay on A498 renal, with DU-145 prostate and in the assay with MDA-MB-435 was above 100 µM throughout.
`O=C(O)CCC1CCC(c2cc(F)ccc2F)(S(=O)(=O)c2ccc(Cl)cc2)CC1` (centres undefined): the GI50 was 30.4 µM and > 100 µM with MDA-MB-231 breast; 17.8 µM and 49.3 µM in the assay with HS 578T breast; 29.4 µM and > 100 µM in the assay with SF-539 CNS; 38 µM and > 75.4 µM in the assay with HCC-2998 colon; 15.9 µM and > 72.2 µM in the assay with SNB-75 CNS; 27.3 µM and > 100 µM in the assay with TK-10 renal. The GI50 with NCI-H226 lung is 41.2 µM and > 100 µM; in the assay with DU-145 prostate, 93.4 µM and > 100 µM; with MDA-MB-435, 14.5 µM and 26.5 µM. Also, the TGI was above 100 µM with MDA-MB-231 breast; 55.4 µM and > 100 µM in the assay with HS 578T breast; above 100 µM in the assay with SF-539 CNS; above 100 µM with HCC-2998 colon; 55.8 µM and > 100 µM in the assay with SNB-75 CNS; above 100 µM with TK-10 renal. Besides, the TGI in the assay with NCI-H226 lung was above 100 µM; in the assay with A498 renal it was 67.1 µM and > 100 µM; in the assay with DU-145 prostate, above 100 µM; in the assay with MDA-MB-435, 31.2 µM and > 92.7 µM.
As to `Cn1cc(C2=C(c3c4n(c5ccccc35)CCC(CN)CC4)C(=O)NC2=O)c2ccccc21` (centres undefined), the GI50 in the assay with MDA-MB-231 breast is 3.25 µM; in the assay with HS 578T breast it was 2.56 µM; in the assay with SF-539 CNS, 3.91 µM; in the assay with HCC-2998 colon it was 4.43 µM; with SNB-75 CNS it was 1.09 µM; with TK-10 renal, 3.31 µM. Also, the GI50 is 5.01 µM in the assay with NCI-H226 lung, 3.96 µM in the assay with A498 renal, 4.55 µM in the assay on DU-145 prostate and 3.35 µM in the assay with MDA-MB-435. The TGI in the assay on MDA-MB-231 breast worked out at 7.13 µM; in the assay on HS 578T breast it was 8.5 µM; in the assay with SF-539 CNS, 7.35 µM; in the assay on HCC-2998 colon, 8.46 µM; with SNB-75 CNS it was 4.9 µM; with TK-10 renal, 6.95 µM. For the same molecule, the TGI with NCI-H226 lung is 16.2 µM; in the assay with A498 renal, 7.55 µM; with DU-145 prostate, 8.21 µM; in the assay with MDA-MB-435 it was 6.76 µM.
Take `O=C(Nc1ccc(Br)c(Cl)c1)c1cc(F)ccc1O`: the GI50 in the assay on MDA-MB-231 breast was 0.76 µM; in the assay with HS 578T breast it was 0.719 µM; in the assay on SF-539 CNS, 0.771 µM; with HCC-2998 colon, 1.63 µM; in the assay on SNB-75 CNS, 0.591 µM; in the assay on TK-10 renal it was 1.92 µM. For the same molecule, the GI50 in the assay on NCI-H226 lung was 0.651 µM; in the assay with A498 renal it was 0.162 µM; in the assay on DU-145 prostate it was 1.39 µM; with MDA-MB-435, 1.01 µM. Further, the TGI with MDA-MB-231 breast is 2.61 µM; with HS 578T breast, above 15.5 µM; in the assay on SF-539 CNS it was 6.32 µM; in the assay with HCC-2998 colon, above 22 µM; in the assay on SNB-75 CNS, 4.53 µM; with TK-10 renal, 29.8 µM. The TGI in the assay with NCI-H226 lung is 2.69 µM; in the assay on A498 renal, 1.03 µM; with DU-145 prostate, above 50 µM; with MDA-MB-435 it was above 15.8 µM.
In the case of `COC(=O)C#Cc1ccc([N+](=O)[O-])cc1`, the TGI in the assay with MDA-MB-231 breast worked out at 4.08 µM; in the assay on HS 578T breast, 47.5 µM; in the assay on SF-539 CNS, 4.08 µM; with HCC-2998 colon, 4.32 µM; with SNB-75 CNS it was 7.34 µM; in the assay on TK-10 renal it was 3.79 µM. The TGI came to 5.72 µM with NCI-H226 lung, 22.6 µM in the assay on A498 renal, 3.57 µM in the assay with DU-145 prostate and 5.57 µM with MDA-MB-435.

Source of the values: PubChem BioAssay (NCI).
